In ChEMBL document CHEMBL3112582, “Identification of novel 7-amino-5-methyl-1,6-naphthyridin-2(1H)-one derivatives as potent PI3K/mTOR dual inhibitors” (Bioorg Med Chem Lett, 2014):

Tests used:
[1] = target: Serine/threonine-protein kinase mTOR (Homo sapiens, UniProt P42345); experiment: Inhibition of mTOR (unknown origin) after 40 mins by TR-FRET assay
[2] = target: Phosphatidylinositol 4,5-bisphosphate 3-kinase catalytic subunit alpha isoform (Homo sapiens, UniProt P42336); experiment: Inhibition of PI3Kalpha (unknown origin) using PIP2/PS as substrate compound preincubated for 15 mins by luciferase-based luminescence assay
Phosphatidylinositol 4,5-bisphosphate 3-kinase catalytic subunit alpha isoform, sequence (P42336 whole entry, canonical isoform): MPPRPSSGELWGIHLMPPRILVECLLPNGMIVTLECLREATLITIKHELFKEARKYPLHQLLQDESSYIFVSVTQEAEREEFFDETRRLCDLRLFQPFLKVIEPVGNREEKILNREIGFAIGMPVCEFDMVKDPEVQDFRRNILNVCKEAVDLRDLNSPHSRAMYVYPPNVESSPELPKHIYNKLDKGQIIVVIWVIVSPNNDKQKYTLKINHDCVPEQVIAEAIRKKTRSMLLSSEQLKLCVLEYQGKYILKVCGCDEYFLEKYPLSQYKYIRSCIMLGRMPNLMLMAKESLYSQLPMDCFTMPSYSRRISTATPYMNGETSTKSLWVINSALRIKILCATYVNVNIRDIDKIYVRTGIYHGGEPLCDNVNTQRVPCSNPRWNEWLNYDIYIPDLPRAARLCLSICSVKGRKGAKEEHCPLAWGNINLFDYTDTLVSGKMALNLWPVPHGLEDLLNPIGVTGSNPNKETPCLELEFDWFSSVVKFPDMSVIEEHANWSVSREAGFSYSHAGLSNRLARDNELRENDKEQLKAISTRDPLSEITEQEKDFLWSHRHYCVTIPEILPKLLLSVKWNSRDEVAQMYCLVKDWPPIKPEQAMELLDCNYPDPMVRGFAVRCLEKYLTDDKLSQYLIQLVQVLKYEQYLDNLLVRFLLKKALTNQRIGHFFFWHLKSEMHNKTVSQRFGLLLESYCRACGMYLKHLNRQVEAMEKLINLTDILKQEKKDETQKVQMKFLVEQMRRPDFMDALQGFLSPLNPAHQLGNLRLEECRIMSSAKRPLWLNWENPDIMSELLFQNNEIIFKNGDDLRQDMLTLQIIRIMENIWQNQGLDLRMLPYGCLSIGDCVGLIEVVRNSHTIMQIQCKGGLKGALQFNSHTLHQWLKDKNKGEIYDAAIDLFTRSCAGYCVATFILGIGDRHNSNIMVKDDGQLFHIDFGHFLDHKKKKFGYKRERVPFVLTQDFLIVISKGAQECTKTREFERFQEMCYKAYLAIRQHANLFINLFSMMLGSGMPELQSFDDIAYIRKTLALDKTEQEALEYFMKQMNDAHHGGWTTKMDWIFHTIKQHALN

[3] = Half life in CD-1 mouse at 1.3 mg/kg, iv; type: ADME, organism-based; set-up: dose 1.3 mg/kg, route intravenous; conditions: in vivo
[4] = Clearance in CD-1 mouse at 1.3 mg/kg, iv; type: ADME, organism-based; set-up: dose 1.3 mg/kg, route intravenous; conditions: in vivo
[5] = AUC (infinity) in CD-1 mouse at 6.81 mg/kg, po; type: ADME, organism-based; set-up: time infinity, dose 6.81 mg/kg, route oral; conditions: plasma
[6] = Oral bioavailability in CD-1 mouse at 6.81 mg/kg; type: ADME, organism-based; conditions: in vivo
[7] = AUC (infinity) in CD-1 mouse at 1.3 mg/kg, iv; type: ADME, organism-based; set-up: time infinity, dose 1.3 mg/kg, route intravenous; conditions: plasma
SK-OV-3 = experiment: Antiproliferative activity against human SKOV3 cells after 72 hrs by CellTiter-Glo assay; type: functional, cell-based; conditions: SK-OV-3, 72 h
[8] = Half life in CD-1 mouse at 6.81 mg/kg, po; type: ADME, organism-based; set-up: dose 6.81 mg/kg, route oral; conditions: in vivo

Compound	IC50 [1] [nM]	IC50 [2] [nM]	also measured
COc1ccc(-c2cc3c(C)nc(N)cc3n([C@H]3CC[C@H](OCCO)CC3)c2=O)cn1	11.2	35.4	–
COc1ncc(-c2cc3c(C)nc(N)cc3n(C3CCCC3)c2=O)cc1F	160	5.95	–
COc1ncc(-c2cc3c(C)nc(N)cc3n(C3CCCC3)c2=O)cc1NS(=O)(=O)C1CC1	141	69.1	–
COc1ncc(-c2cc3c(C)nc(N)cc3n(C3CCCC3)c2=O)cc1NS(C)(=O)=O	62.6	23.1	–
COc1ncc(-c2cc3c(C)nc(N)cc3n(C3CCCC3)c2=O)cc1NS(=O)(=O)c1ccccc1	19.2	117	–
COc1ccc(-c2cn([C@H]3CC[C@H](OCCO)CC3)c3nc(N)nc(C)c23)cn1	> 10000	> 10000	–
COc1ccc(-c2cc3c(C)nc(N)nc3n2[C@H]2CC[C@H](OCCO)CC2)cn1	> 10000	5550	–
COc1ccc(-c2cc3c(C)nc(N)nc3n(C3CCCC3)c2=O)cn1	30.1	–	–
COc1ncc(-c2cc3c(C)nc(N)cc3n(C3CCCC3)c2=O)cc1NS(=O)(=O)c1ccc(F)cc1	35	72.6	–
COc1ncc(-c2ccc3nc(N)nc(C)c3c2)cc1NS(=O)(=O)c1ccc(F)cc1F	2.32	3.43	–
Cc1nc(N)cc2c1cc(-c1cnc3c(ccn3C)c1)c(=O)n2C1CCCC1	82.1	15.2	–
COc1ncc(-c2cc3c(C)nc(N)cc3n(C(C)C)c2=O)cc1NS(=O)(=O)c1ccc(F)cc1F	126	42.8	–
COc1ncc(-c2cnc3nc(N)nc(C)c3c2)cc1NS(=O)(=O)c1ccc(F)cc1F	35.3	–	–
COc1ncc(-c2cc3c(C)nc(N)cc3n(C3CCCC3)c2=O)cc1NS(=O)(=O)c1ccccc1F	–	37.3	–
COc1ccc(-c2cc3c(C)nc(N)cc3n(C3CCCC3)c2=O)cn1	39	13.6	–
COc1ccc(S(=O)(=O)Nc2cc(-c3cc4c(C)nc(N)cc4n(C4CCCC4)c3=O)cnc2OC)cc1	65.6	174	–
COc1ncc(-c2cc3c(C)nc(N)cc3n(C3CCCC3)c2=O)cc1NS(=O)(=O)c1ccc(F)cc1F	33.9	12	–
COc1ncc(-c2cnc3nc(N)nc(-c4ccncc4)c3c2)cc1NS(=O)(=O)c1ccc(F)cc1F	18.4	35.6	–
COc1ncc(-c2cc3c(C)nc(N)cc3n(C3CC3)c2=O)cc1NS(=O)(=O)c1ccc(F)cc1F	–	39.6	–
COc1ncc(-c2cc3c(C)nc(N)cc3n([C@H]3CC[C@H](O)CC3)c2=O)cc1NS(=O)(=O)c1ccc(F)cc1F	28.7	9.9	–
COc1ncc(-c2cc3c(C)nc(N)cc3n(C3CCOCC3)c2=O)cc1NS(=O)(=O)c1ccc(F)cc1F	13.4	8.6	–
Cc1nc(N)cc2c1cc(-c1cnc3[nH]ncc3c1)c(=O)n2C1CCCC1	172	6	–
Cc1nc(N)cc2c1cc(-c1cnc3[nH]ccc3c1)c(=O)n2C1CCCC1	12.3	2.45	–
COc1ncc(-c2cc3c(C)nc(N)cc3n(C3CCCC3)c2=O)cc1NS(=O)(=O)c1ccc(C#N)cc1	24.7	14.3	–
Cc1nc(N)cc2c1cc(-c1cnc3[nH]cnc3c1)c(=O)n2C1CCCC1	13.9	2.9	–
COc1ncc(-c2cc3c(C)nc(N)cc3n(C3CCCC3)c2=O)cc1NS(=O)(=O)c1ccc(Cl)s1	8.49	31.2	–
COc1ncc(-c2cc3c(C)nc(N)cc3n([C@H]3CC[C@H](OCCO)CC3)c2=O)cc1NS(=O)(=O)c1ccc(F)cc1F	8.55	2.42	half-life [3]: 1.33 h; clearance [4]: 2.87 mL/min/kg; AUC(0-inf) [5]: 3440 ng·h/mL; bioavailability [6]: 8.5%; AUC(0-inf) [7]: 8090 ng·h/mL; IC50 (SK-OV-3): 2100 nM; half-life [8]: 7.67 h
COc1ncc(-c2cc3c(C)nc(N)cc3n(C3CCCC3)c2=O)cn1	36.5	6.45	–
COc1ncc(-c2cc3c(C)nc(N)cc3n(C3CCCC3)c2=O)cc1NS(=O)(=O)c1ccc(C(F)(F)F)cc1	78.2	175	–
COc1ncc(-c2cc3c(C)nc(N)cc3n(C3CCCC3)c2=O)cc1NS(=O)(=O)c1cccc(F)c1	13.9	60.5	–
